Data reported in ChEMBL document CHEMBL4507302, “Data for DCP probe TP-020” (2021).

Experiments:
[1] = molecular target: Serine/threonine-protein kinase 17B (Homo sapiens) (UniProt O94768); conditions: Compound concentration 1000.0 nM
[2] = molecular target: Cyclin-dependent kinase 4 (Homo sapiens) (UniProt P11802); conditions: Compound concentration 1000.0 nM
[3] = test system: ALK tyrosine kinase receptor (Homo sapiens), Q9UM73 [C1156Y]; conditions: Compound concentration 1000.0 nM
[4] = molecular target: Receptor tyrosine-protein kinase erbB-3 (Homo sapiens) (UniProt P21860); conditions: Compound concentration 1000.0 nM
[5] = molecular target: Serine/threonine-protein kinase Nek10 (Homo sapiens) (UniProt Q6ZWH5); conditions: Compound concentration 1000.0 nM
[6] = molecular target: Inhibitor of nuclear factor kappa-B kinase subunit alpha (Homo sapiens) (UniProt O15111); conditions: Compound concentration 1000.0 nM
[7] = molecular target: Tyrosine-protein kinase Yes (Homo sapiens) (UniProt P07947); conditions: Compound concentration 1000.0 nM
[8] = molecular target: TGF-beta receptor type-2 (Homo sapiens) (UniProt P37173); conditions: Compound concentration 1000.0 nM
[9] = molecular target: Myosin light chain kinase 2, skeletal/cardiac muscle (Homo sapiens) (UniProt Q9H1R3); conditions: Compound concentration 1000.0 nM
[10] = molecular target: Ribosomal protein S6 kinase alpha-3 (Homo sapiens) (UniProt P51812); conditions: Compound concentration 1000.0 nM
[11] = molecular target: Aurora kinase A (Homo sapiens) (UniProt O14965); conditions: Compound concentration 1000.0 nM
[12] = test system: Tyrosine-protein kinase ABL1 (Homo sapiens), P00519 [F317L]; conditions: Compound concentration 1000.0 nM
[13] = molecular target: Serine/threonine-protein kinase pim-3 (Homo sapiens) (UniProt Q86V86); conditions: Compound concentration 1000.0 nM
[14] = molecular target: Dual specificity mitogen-activated protein kinase kinase 4 (Homo sapiens) (UniProt P45985); conditions: Compound concentration 1000.0 nM
[15] = molecular target: Mitogen-activated protein kinase 1 (Homo sapiens) (UniProt P28482); conditions: Compound concentration 1000.0 nM
Rattus norvegicus = organism: Rattus norvegicus; conditions: Compound concentration 10.0 uM
[16] = molecular target: Tyrosine-protein kinase JAK3 (Homo sapiens) (UniProt P52333); conditions: Compound concentration 1000.0 nM
[17] = molecular target: Cyclin-dependent kinase 4 (Homo sapiens) (UniProt P11802); conditions: Compound concentration 1000.0 nM; remark: listed apart in the source
[18] = molecular target: Mitogen-activated protein kinase 3 (Homo sapiens) (UniProt P27361); conditions: Compound concentration 1000.0 nM
[19] = molecular target: Serine/threonine-protein kinase Nek11 (Homo sapiens) (UniProt Q8NG66); conditions: Compound concentration 1000.0 nM
[20] = molecular target: Serine/threonine-protein kinase PLK2 (Homo sapiens) (UniProt Q9NYY3); conditions: Compound concentration 1000.0 nM
[21] = molecular target: Rhodopsin kinase GRK1 (Homo sapiens) (UniProt Q15835); conditions: Compound concentration 1000.0 nM
[22] = molecular target: Calcium/calmodulin-dependent protein kinase kinase 2 (Homo sapiens) (UniProt Q96RR4); conditions: Compound concentration 1000.0 nM
[23] = molecular target: Myosin light chain kinase family member 4 (Homo sapiens) (UniProt Q86YV6); conditions: Compound concentration 1000.0 nM
[24] = molecular target: Tyrosine-protein kinase Fgr (Homo sapiens) (UniProt P09769); conditions: Compound concentration 1000.0 nM
[25] = molecular target: Serine/threonine-protein kinase N2 (Homo sapiens) (UniProt Q16513); conditions: Compound concentration 1000.0 nM
[26] = molecular target: Receptor-type tyrosine-protein kinase FLT3 (Homo sapiens) (UniProt P36888); conditions: Compound concentration 1000.0 nM
[27] = molecular target: Mitogen-activated protein kinase 13 (Homo sapiens) (UniProt O15264); conditions: Compound concentration 1000.0 nM
[28] = molecular target: Phosphatidylinositol 4-kinase beta (Homo sapiens) (UniProt Q9UBF8); conditions: Compound concentration 1000.0 nM
[29] = molecular target: 5'-AMP-activated protein kinase catalytic subunit alpha-2 (Homo sapiens) (UniProt P54646); conditions: Compound concentration 1000.0 nM
[30] = molecular target: D(3) dopamine receptor (Homo sapiens) (UniProt P35462); conditions: Compound concentration 10.0 uM
[31] = molecular target: Rho-associated protein kinase 1 (Homo sapiens) (UniProt Q13464); conditions: Compound concentration 1000.0 nM
[32] = molecular target: Mitogen-activated protein kinase 4 (Homo sapiens) (UniProt P31152); conditions: Compound concentration 1000.0 nM
[33] = molecular target: Cyclin-dependent kinase 11A (Homo sapiens) (UniProt Q9UQ88); conditions: Compound concentration 1000.0 nM
[34] = test system: Receptor-type tyrosine-protein kinase FLT3 (Homo sapiens), P36888 [D835V]; conditions: Compound concentration 1000.0 nM
[35] = test system: Hepatocyte growth factor receptor (Homo sapiens), P08581 [M1250T]; conditions: Compound concentration 1000.0 nM
[36] = molecular target: Protein kinase C epsilon type (Homo sapiens) (UniProt Q02156); conditions: Compound concentration 1000.0 nM
[37] = molecular target: Platelet-derived growth factor receptor alpha (Homo sapiens) (UniProt P16234); conditions: Compound concentration 1000.0 nM
[38] = molecular target: Serine/threonine-protein kinase RIO2 (Homo sapiens) (UniProt Q9BVS4); conditions: Compound concentration 1000.0 nM
[39] = test system: eIF-2-alpha kinase GCN2 (Homo sapiens), Q9P2K8 [S808G]; conditions: Compound concentration 1000.0 nM
[40] = molecular target: Serine/threonine-protein kinase PLK4 (Homo sapiens) (UniProt O00444); conditions: Compound concentration 1000.0 nM
[41] = molecular target: Mitogen-activated protein kinase kinase kinase 11 (Homo sapiens) (UniProt Q16584); conditions: Compound concentration 1000.0 nM
[42] = test system: Phosphatidylinositol 4,5-bisphosphate 3-kinase catalytic subunit alpha isoform (Homo sapiens), P42336 [I800L]; conditions: Compound concentration 1000.0 nM
[43] = molecular target: Serine/threonine-protein kinase N1 (Homo sapiens) (UniProt Q16512); conditions: Compound concentration 1000.0 nM
[44] = test system: Tyrosine-protein kinase ABL1 (Homo sapiens), P00519 [H396P]; conditions: Compound concentration 1000.0 nM
[45] = molecular target: Serine/threonine-protein kinase ULK1 (Homo sapiens) (UniProt O75385); conditions: Compound concentration 1000.0 nM

Cyclin-dependent kinase 4 (Homo sapiens), sequence (P11802 whole entry): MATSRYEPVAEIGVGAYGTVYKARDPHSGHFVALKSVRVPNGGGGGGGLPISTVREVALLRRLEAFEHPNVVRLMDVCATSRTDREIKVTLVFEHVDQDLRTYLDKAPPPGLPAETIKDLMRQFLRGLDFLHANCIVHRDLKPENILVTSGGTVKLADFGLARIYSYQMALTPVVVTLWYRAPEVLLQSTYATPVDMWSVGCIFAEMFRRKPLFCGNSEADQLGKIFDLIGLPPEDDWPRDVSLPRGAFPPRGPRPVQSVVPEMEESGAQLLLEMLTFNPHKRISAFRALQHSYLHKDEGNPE
Calcium/calmodulin-dependent protein kinase kinase 2 (Homo sapiens), sequence (Q96RR4 2-588 limits assumed): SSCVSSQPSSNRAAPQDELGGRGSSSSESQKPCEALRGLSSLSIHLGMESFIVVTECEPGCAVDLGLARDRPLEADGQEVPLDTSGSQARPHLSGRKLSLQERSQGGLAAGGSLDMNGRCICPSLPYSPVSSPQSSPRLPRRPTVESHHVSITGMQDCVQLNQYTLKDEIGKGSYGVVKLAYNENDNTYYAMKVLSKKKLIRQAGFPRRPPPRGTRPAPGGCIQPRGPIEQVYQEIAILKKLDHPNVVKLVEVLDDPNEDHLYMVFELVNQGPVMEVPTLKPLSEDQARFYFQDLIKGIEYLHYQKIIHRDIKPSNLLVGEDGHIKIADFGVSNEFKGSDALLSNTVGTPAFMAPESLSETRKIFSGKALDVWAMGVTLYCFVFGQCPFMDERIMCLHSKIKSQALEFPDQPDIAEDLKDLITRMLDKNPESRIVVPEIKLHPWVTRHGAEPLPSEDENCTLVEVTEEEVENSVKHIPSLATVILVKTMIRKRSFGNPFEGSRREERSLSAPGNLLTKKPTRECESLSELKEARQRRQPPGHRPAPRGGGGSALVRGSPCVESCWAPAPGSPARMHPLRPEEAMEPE
D(3) dopamine receptor (Homo sapiens), sequence (P35462 whole entry): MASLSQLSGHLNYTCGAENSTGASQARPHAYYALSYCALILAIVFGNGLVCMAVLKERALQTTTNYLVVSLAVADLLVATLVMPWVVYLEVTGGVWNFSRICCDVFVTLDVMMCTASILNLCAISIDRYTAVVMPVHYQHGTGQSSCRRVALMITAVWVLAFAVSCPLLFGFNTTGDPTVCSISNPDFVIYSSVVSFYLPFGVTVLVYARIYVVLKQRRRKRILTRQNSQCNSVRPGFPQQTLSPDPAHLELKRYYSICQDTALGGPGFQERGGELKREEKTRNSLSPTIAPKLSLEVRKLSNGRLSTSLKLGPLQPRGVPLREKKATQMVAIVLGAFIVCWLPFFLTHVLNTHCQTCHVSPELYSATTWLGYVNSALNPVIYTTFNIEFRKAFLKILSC
Myosin light chain kinase 2, skeletal/cardiac muscle (Homo sapiens), sequence (Q9H1R3 whole entry): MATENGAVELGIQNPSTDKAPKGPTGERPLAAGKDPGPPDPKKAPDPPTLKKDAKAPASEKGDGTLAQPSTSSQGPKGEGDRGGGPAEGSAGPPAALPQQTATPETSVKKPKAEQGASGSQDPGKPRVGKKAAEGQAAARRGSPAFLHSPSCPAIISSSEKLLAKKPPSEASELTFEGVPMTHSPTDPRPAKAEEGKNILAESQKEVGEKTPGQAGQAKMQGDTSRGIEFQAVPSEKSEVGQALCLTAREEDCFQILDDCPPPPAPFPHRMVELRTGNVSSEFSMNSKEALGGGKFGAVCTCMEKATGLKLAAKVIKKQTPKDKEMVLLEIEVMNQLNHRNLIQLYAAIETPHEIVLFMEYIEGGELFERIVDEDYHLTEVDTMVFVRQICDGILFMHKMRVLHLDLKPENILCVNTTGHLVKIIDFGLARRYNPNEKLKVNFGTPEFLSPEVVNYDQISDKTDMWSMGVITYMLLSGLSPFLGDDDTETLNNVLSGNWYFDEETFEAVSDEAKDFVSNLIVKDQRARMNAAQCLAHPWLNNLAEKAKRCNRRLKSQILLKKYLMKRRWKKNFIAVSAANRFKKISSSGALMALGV
5'-AMP-activated protein kinase catalytic subunit alpha-2 (Homo sapiens), sequence (P54646 whole entry, looked up): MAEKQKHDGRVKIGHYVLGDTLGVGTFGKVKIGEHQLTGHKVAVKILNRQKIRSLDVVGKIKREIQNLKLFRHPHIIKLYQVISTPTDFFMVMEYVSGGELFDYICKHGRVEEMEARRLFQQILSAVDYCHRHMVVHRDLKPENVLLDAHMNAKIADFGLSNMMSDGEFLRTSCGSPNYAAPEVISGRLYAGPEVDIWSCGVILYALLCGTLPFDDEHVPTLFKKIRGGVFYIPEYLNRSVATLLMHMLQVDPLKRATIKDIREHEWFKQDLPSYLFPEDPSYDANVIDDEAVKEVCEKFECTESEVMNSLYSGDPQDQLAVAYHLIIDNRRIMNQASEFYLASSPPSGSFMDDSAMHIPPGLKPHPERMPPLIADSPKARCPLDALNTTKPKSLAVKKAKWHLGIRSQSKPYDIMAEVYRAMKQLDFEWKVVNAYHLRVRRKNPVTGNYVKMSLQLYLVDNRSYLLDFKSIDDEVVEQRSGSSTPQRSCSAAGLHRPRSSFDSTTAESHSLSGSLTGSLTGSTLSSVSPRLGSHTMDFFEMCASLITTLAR
Mitogen-activated protein kinase 13 (Homo sapiens), sequence (O15264 whole entry): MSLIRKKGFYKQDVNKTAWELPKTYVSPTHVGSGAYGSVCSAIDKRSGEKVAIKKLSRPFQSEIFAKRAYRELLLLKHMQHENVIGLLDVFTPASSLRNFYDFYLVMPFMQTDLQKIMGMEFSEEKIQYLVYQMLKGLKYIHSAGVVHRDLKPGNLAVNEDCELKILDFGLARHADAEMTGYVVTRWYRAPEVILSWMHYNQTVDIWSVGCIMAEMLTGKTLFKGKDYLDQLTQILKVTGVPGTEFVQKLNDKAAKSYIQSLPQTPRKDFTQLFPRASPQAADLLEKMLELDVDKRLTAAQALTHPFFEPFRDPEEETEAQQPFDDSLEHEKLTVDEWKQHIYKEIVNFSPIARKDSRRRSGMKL
Mitogen-activated protein kinase kinase kinase 11 (Homo sapiens), sequence (Q16584 whole entry, looked up, canonical isoform): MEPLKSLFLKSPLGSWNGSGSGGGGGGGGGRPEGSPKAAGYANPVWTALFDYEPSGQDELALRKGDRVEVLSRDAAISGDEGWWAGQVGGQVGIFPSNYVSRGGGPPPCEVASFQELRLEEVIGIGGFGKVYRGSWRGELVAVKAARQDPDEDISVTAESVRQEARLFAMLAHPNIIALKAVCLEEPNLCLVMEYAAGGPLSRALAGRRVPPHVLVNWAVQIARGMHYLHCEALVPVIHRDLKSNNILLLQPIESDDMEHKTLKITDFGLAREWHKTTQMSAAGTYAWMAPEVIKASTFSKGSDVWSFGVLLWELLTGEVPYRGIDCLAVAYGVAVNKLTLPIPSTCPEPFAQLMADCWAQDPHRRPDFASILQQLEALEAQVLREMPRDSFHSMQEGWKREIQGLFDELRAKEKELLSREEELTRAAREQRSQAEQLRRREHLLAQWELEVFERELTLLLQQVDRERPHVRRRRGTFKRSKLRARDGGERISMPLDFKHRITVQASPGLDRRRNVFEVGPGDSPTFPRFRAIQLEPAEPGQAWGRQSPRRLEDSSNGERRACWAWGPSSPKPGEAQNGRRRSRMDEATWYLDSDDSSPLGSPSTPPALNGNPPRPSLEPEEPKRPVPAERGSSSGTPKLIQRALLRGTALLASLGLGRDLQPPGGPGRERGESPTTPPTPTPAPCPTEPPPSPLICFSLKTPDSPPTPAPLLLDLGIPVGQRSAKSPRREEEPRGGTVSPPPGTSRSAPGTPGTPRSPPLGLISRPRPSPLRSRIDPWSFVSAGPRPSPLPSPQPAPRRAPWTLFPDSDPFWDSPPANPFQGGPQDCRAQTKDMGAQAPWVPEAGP
Serine/threonine-protein kinase PLK2 (Homo sapiens), sequence (Q9NYY3 whole entry, looked up): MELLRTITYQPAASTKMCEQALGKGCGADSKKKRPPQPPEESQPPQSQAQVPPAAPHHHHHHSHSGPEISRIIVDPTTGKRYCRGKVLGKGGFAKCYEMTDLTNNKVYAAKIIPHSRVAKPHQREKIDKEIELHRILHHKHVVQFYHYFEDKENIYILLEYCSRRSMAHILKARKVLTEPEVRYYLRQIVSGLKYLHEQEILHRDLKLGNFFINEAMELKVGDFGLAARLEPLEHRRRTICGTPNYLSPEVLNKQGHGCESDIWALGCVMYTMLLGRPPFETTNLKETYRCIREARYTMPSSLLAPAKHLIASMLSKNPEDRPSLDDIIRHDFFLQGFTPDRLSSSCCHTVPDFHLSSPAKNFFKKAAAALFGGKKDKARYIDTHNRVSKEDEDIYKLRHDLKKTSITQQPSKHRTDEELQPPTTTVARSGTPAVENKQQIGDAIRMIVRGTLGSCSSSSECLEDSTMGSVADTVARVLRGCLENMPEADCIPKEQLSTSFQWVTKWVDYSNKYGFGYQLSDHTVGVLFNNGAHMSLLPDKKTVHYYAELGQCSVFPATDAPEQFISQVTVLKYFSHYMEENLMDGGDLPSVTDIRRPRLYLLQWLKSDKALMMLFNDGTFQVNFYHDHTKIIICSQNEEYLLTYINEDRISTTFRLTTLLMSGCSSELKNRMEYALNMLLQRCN
Serine/threonine-protein kinase RIO2 (Homo sapiens), sequence (Q9BVS4 whole entry, looked up): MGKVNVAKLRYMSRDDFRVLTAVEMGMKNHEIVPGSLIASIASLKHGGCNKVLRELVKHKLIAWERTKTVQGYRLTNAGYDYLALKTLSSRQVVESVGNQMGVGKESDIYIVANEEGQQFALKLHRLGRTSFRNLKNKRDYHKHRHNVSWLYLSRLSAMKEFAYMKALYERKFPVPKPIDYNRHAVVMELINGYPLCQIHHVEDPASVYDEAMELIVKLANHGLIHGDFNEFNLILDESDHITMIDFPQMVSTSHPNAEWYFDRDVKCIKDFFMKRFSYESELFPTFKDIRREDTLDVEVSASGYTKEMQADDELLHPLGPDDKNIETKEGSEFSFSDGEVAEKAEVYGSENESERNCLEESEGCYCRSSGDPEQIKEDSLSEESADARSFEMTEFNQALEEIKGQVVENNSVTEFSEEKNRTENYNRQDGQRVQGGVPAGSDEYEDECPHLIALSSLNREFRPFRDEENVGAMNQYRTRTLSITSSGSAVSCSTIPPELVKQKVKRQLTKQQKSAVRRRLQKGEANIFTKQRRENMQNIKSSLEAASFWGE

Nc1cnc(N2CCc3cc(S(=O)(=O)Nc4c(F)cc(Cl)cc4F)cc(N4CCCC4=O)c32)nc1
inactive: residual activity [1] 100% | residual activity [2] 97% | residual activity [3] 100% | residual activity [4] 100% | residual activity [5] 100% | residual activity [6] 100% | residual activity [7] 100% | residual activity [8] 92% | residual activity [9] 87% | residual activity [10] 84% | residual activity [11] 100% | residual activity [12] 99% | residual activity [13] 98% | residual activity [14] 100% | residual activity [15] 100% | inhibition (Rattus norvegicus) -2.65% | residual activity [16] 100% | residual activity [17] 97% | residual activity [18] 91% | residual activity [19] 100% | residual activity [20] 100% | residual activity [21] 100% | residual activity [22] 100% | residual activity [23] 100% | residual activity [24] 100% | residual activity [25] 100% | residual activity [26] 81% | residual activity [27] 100% | residual activity [28] 93% | residual activity [29] 100% | inhibition [30] 7.41% | residual activity [31] 96% | residual activity [32] 100% | residual activity [33] 89% | residual activity [34] 100% | residual activity [35] 100% | residual activity [36] 100% | residual activity [37] 89% | residual activity [38] 89% | residual activity [39] 100% | residual activity [40] 100% | residual activity [41] 100% | residual activity [42] 80% | residual activity [43] 95% | residual activity [44] 94% | residual activity [45] 95%

Cn1nc(C(F)(F)F)cc1-c1cnc(N2CCc3cc(S(=O)(=O)Nc4c(F)cc(Cl)cc4F)cc(N4CCCC4=O)c32)nc1 [TP-020]
inactive: residual activity [1] 100% | residual activity [2] 68% | residual activity [3] 72% | residual activity [4] 93% | residual activity [5] 80% | residual activity [6] 99% | residual activity [7] 99% | residual activity [8] 81% | residual activity [9] 100% | residual activity [10] 100% | residual activity [11] 88% | residual activity [12] 60% | residual activity [13] 100% | residual activity [14] 88% | residual activity [15] 100% | inhibition (Rattus norvegicus) -9.93% | residual activity [16] 81% | residual activity [17] 81% | residual activity [18] 100% | residual activity [19] 78% | residual activity [20] 91% | residual activity [21] 95% | residual activity [22] 93% | residual activity [23] 99% | residual activity [24] 90% | residual activity [25] 82% | residual activity [26] 85% | residual activity [27] 100% | residual activity [28] 77% | residual activity [29] 97% | inhibition [30] 2.14% | residual activity [31] 89% | residual activity [32] 100% | residual activity [33] 100% | residual activity [34] 91% | residual activity [35] 94% | residual activity [36] 96% | residual activity [37] 88% | residual activity [38] 89% | residual activity [39] 100% | residual activity [40] 77% | residual activity [41] 100% | residual activity [42] 77% | residual activity [43] 100% | residual activity [44] 81% | residual activity [45] 79%
